In experiment [1] the target is T1, S100P (Homo sapiens, UniProt P25815).
T1 construct: full-length human S100P cDNA (NM_005980) was cloned into the pTrcHis2 vector; His tag; made in house
As to the kind of experiment: S100P binding to cromolyn using affinity chromatography. The following applies: cromolyn coupled to AF-TOYOPEARL; EGTA elution; control column did not retain. Here is the method:
Cromolyn was coupled with the amino group of AF-amino TOYOPEARL to generate a cromolyn affinity column. A negative control column was prepared by blocking the amino group. Purified S100P was added to both columns, which were then washed extensively. Protein was eluted from the columns using EGTA and subjected to sodium dodecylsulfate polyacrylamide gel electrophoresis and staining with Commassie blue. Lane 1 of the gel is the molecular weight marker; lane 2 is the eluate from the control column; and lane 3 is the eluate from the cromolyn column (arrow, S100P). The gel shown is one of three independent experiments.
Cromolyn was coupled to AF-TOYOPEARL resin as described in Shishibori, et al., Three distinct anti-allergic drugs, amlexanox, cromolyn and tranilast, bind to S100A 12 and S100A13 of the S100 protein family; Biochem. J. 1999 Mar. 15; 338 (Pt 3):583-9. Briefly, 0.1 grams of cromolyn was dissolved in 1 mL of N,N-dimethylformamide and added to 7 mL (5 grams wet mass) AF-TOYOPEARL. Next, 0.5 grams of N-ethyl-N-(3-dimethylaminopropyl) carbodiimide hydrochloride, suspended in 10 mL of N,N-dimethylformamide, was added to the cromolyn+AF-TOYOPEARL slurry. The pH was adjusted to 5.0, and the slurry was incubated with gentle shaking for 48 hours at 25° C. As a negative control, a column was prepared by blocking the amino group of AF-TOYOPEARL with sodium acetate and acetic anhydride. […]

Experiment [2] deals with BxPC-3 cells. The experiment is described as follows: BxPC-3 cell viability, 72 hours. It counts as cell-based. The protocol: BxPC-3 cells were plated at 1.0×10^3 cells/well and treated with 0 μM, 1 μM, 10 μM, and 100 μM of cromolyn or C5 alone or in combination with gemcitabine 1 μM and cell viability was analyzed after 72 hours. Two-tailed two-sample (unpaired) Student's t-tests were used to determine P values. […] BxPC-3 cells were plated at 1.0×10^3 cells/well and treated with either 100 μM of cromolyn or 1 μM C5 alone or in combination with gemcitabine (1 μM) and cell viability was analyzed after 72 hours.

Experimental findings from US8252807B2, “Methods of inhibiting the interaction between S100 and the receptor for advanced glycation end-products” (Board of Regents, The University of Texas System, priority 2007, dated 2012) are described below.

SMILES strings stand for the structures.

Regarding `O=C(O)c1cc(=O)c2c(OCC(O)COc3cccc4oc(C(=O)O)cc(=O)c34)cccc2o1` [cromolyn, disodium 1,3-bis[(2′-carboxylatochromon-5′-yl)oxy]-2-hydroxypropane], the “S100P retained by cromolyn affinity column” value in experiment [1] was “retained S100P”. For the same molecule, the BxPC-3 cell viability entry in experiment [2] (1-100 μM, alone or with gemcitabine 1 μM) is “inhibit BxPC-3 cell viability”. The “concentration giving the same level of cell reduction in combination with gemcitabine” value in experiment [2] (with gemcitabine 1 μM) came out at 100 µM.
